# Experimental data published in paper PMC5218480 (PLoS ONE, 2017).
# Test system: MV-4-11 cells
# Test: Gene expression microarray analysis (Affymetrix PrimeView) and GSEA
# Type: cell-based, human
# Parameters: RFU PODN (11730768_x_at) / Fold change /veh PODN (11730768_x_at) / RFU LINC00158 (11744669_a_at) / Fold change /veh LINC00158 (11744669_a_at) / RFU DUSP10 (11751237_a_at) / Fold change /veh DUSP10 (11751237_a_at) / RFU ID3 (11757404_x_at) / Fold change /veh ID3 (11757404_x_at) / RFU PLEKHG5 (11737974_s_at) / Fold change /veh PLEKHG5 (11737974_s_at) / RFU LRRC4B (11730491_at) / Fold change /veh LRRC4B (11730491_at) / RFU GIMAP4 (11747438_a_at) / Fold change /veh GIMAP4 (11747438_a_at) / RFU KRT8 (11758183_x_at) / Fold change /veh KRT8 (11758183_x_at) / RFU CNN1 (11734310_a_at) / Fold change /veh CNN1 (11734310_a_at) / RFU VPS37D (11726825_at) / Fold change /veh VPS37D (11726825_at) / RFU C10orf10 (11716522_x_at) / Fold change /veh C10orf10 (11716522_x_at) / RFU KIR2DL2 /// KIR2DL4 /// KIR2DL5A /// KIR2DL5B /// KIR2DS1 /// KIR2DS2 /// KIR2DS3 /// KIR2DS4 /// KIR3DL3 /// KIR3DL3 /// KIR3DS1 (11738374_at) / Fold change /veh KIR2DL2 /// KIR2DL4 /// KIR2DL5A /// KIR2DL5B /// KIR2DS1 /// KIR2DS2 /// KIR2DS3 /// KIR2DS4 /// KIR3DL3 /// KIR3DL3 /// KIR3DS1 (11738374_at) / RFU C1QL1 (11718748_at) / Fold change /veh C1QL1 (11718748_at) / RFU TMPRSS4 (11747572_a_at) / Fold change /veh TMPRSS4 (11747572_a_at) / RFU HAMP (11756126_x_at) / Fold change /veh HAMP (11756126_x_at) / RFU RNFT2 (11725882_a_at) / Fold change /veh RNFT2 (11725882_a_at) / RFU NR4A2 (11747474_a_at) / Fold change /veh NR4A2 (11747474_a_at) / RFU ABCC12 (11746883_a_at) / Fold change /veh ABCC12 (11746883_a_at) / RFU TMEM136 (11760407_x_at) / Fold change /veh TMEM136 (11760407_x_at) / RFU CLDN22 /// WWC2 (11732394_at) / Fold change /veh CLDN22 /// WWC2 (11732394_at) / RFU HLA-DPB1 (11760878_x_at) / Fold change /veh HLA-DPB1 (11760878_x_at) / RFU SPINT1 (11716480_a_at) / Fold change /veh SPINT1 (11716480_a_at) / RFU GAP43 (11754022_s_at) / Fold change /veh GAP43 (11754022_s_at) / RFU A4GNT (11735810_at) / Fold change /veh A4GNT (11735810_at) / RFU PRB3 (11715151_x_at) / Fold change /veh PRB3 (11715151_x_at) / RFU TUBB4B (11761932_at) / Fold change /veh TUBB4B (11761932_at) / RFU CAPN14 (11732068_a_at) / Fold change /veh CAPN14 (11732068_a_at) / RFU TMCC2 (11721928_a_at) / Fold change /veh TMCC2 (11721928_a_at) / RFU IRGQ (11745062_a_at) / Fold change /veh IRGQ (11745062_a_at) / RFU FAM174B (11720279_a_at) / Fold change /veh FAM174B (11720279_a_at) / RFU TMPRSS4 (11748680_a_at) / Fold change /veh TMPRSS4 (11748680_a_at) / RFU FAM212B (11763350_a_at) / Fold change /veh FAM212B (11763350_a_at) / RFU PLEKHG5 (11743358_a_at) / Fold change /veh PLEKHG5 (11743358_a_at) / RFU ZSCAN30 (11745921_a_at) / Fold change /veh ZSCAN30 (11745921_a_at) / RFU CMKLR1 (11741424_a_at) / Fold change /veh CMKLR1 (11741424_a_at) / RFU LOC101060620 /// MAPK8IP1 (11723275_at) / Fold change /veh LOC101060620 /// MAPK8IP1 (11723275_at) / RFU SPTSSB (11747773_x_at) / Fold change /veh SPTSSB (11747773_x_at) / RFU PRSS12 (11739890_at) / Fold change /veh PRSS12 (11739890_at) / RFU BIN1 (11741810_x_at) / Fold change /veh BIN1 (11741810_x_at) / RFU WNT11 (11732464_a_at) / Fold change /veh WNT11 (11732464_a_at) / RFU C10orf10 (11716521_a_at) / Fold change /veh C10orf10 (11716521_a_at) / RFU C5orf56 (11738089_at) / Fold change /veh C5orf56 (11738089_at) / RFU CYB561 (11721691_x_at) / Fold change /veh CYB561 (11721691_x_at) / RFU ANKRD19P (11752326_a_at) / Fold change /veh ANKRD19P (11752326_a_at) / RFU OR2T12 /// OR2T33 /// OR2T8 (11738714_s_at) / Fold change /veh OR2T12 /// OR2T33 /// OR2T8 (11738714_s_at) / RFU VCAN (11748164_a_at) / Fold change /veh VCAN (11748164_a_at) / RFU JSRP1 (11732532_at) / Fold change /veh JSRP1 (11732532_at) / RFU KRTAP10-11 (11738290_x_at) / Fold change /veh KRTAP10-11 (11738290_x_at) / RFU MYO3A (11730013_a_at) / Fold change /veh MYO3A (11730013_a_at) / RFU EBF3 (11725865_a_at) / Fold change /veh EBF3 (11725865_a_at) / RFU CAMK2N1 (11719241_x_at) / Fold change /veh CAMK2N1 (11719241_x_at) / RFU C5orf56 (11738088_a_at) / Fold change /veh C5orf56 (11738088_a_at) / RFU OLFML3 (11715873_a_at) / Fold change /veh OLFML3 (11715873_a_at) / RFU LOC100653217 /// NTM (11731650_a_at) / Fold change /veh LOC100653217 /// NTM (11731650_a_at) / RFU MAPK11 (11762145_a_at) / Fold change /veh MAPK11 (11762145_a_at) / RFU FIZ1 (11724087_x_at) / Fold change /veh FIZ1 (11724087_x_at) / RFU OASL (11726364_x_at) / Fold change /veh OASL (11726364_x_at) / RFU SOX15 (11748057_x_at) / Fold change /veh SOX15 (11748057_x_at) / RFU CD79A (11719716_a_at) / Fold change /veh CD79A (11719716_a_at) / RFU HIST1H1D (11736915_at) / Fold change /veh HIST1H1D (11736915_at) / RFU CASKIN2 (11723855_a_at) / Fold change /veh CASKIN2 (11723855_a_at) / RFU LOC730098 (11760151_x_at) / Fold change /veh LOC730098 (11760151_x_at) / RFU OR4N2 (11742367_at) / Fold change /veh OR4N2 (11742367_at) / RFU PRRT2 (11749266_a_at) / Fold change /veh PRRT2 (11749266_a_at) / RFU SNX32 (11753110_a_at) / Fold change /veh SNX32 (11753110_a_at) / RFU CDHR5 (11726645_a_at) / Fold change /veh CDHR5 (11726645_a_at) / RFU RCAN1 (11760418_a_at) / Fold change /veh RCAN1 (11760418_a_at) / RFU FAM167A (11723789_a_at) / Fold change /veh FAM167A (11723789_a_at) / RFU FAM26E (11764081_at) / Fold change /veh FAM26E (11764081_at) / RFU ISYNA1 (11749810_s_at) / Fold change /veh ISYNA1 (11749810_s_at) / RFU ACY1 (11761880_at) / Fold change /veh ACY1 (11761880_at) / RFU 11764098_at / Fold change /veh 11764098_at / RFU SAMD14 (11745864_x_at) / Fold change /veh SAMD14 (11745864_x_at) / RFU NPB (11741838_a_at) / Fold change /veh NPB (11741838_a_at) / RFU TMPRSS6 (11731388_a_at) / Fold change /veh TMPRSS6 (11731388_a_at) / RFU KRTAP10-2 (11738614_at) / Fold change /veh KRTAP10-2 (11738614_at) / RFU ARHGAP8 /// PRR5-ARHGAP8 (11727945_x_at) / Fold change /veh ARHGAP8 /// PRR5-ARHGAP8 (11727945_x_at) / RFU KRTAP5-7 /// NADSYN1 (11734609_at) / Fold change /veh KRTAP5-7 /// NADSYN1 (11734609_at) / RFU RASL12 (11751679_a_at) / Fold change /veh RASL12 (11751679_a_at) / RFU CDKN2B (11736163_a_at) / Fold change /veh CDKN2B (11736163_a_at) / RFU PRF1 (11729649_at) / Fold change /veh PRF1 (11729649_at) / RFU, ZNF638 /// ZNF638-IT1 / Fold change vs veh, ZNF638 /// ZNF638-IT1 / RFU, PANK3 / Fold change vs veh, PANK3 / RFU, SH3YL1 / Fold change vs veh, SH3YL1 / RFU, ZEB2 / Fold change vs veh, ZEB2 / RFU, NRIP1 / Fold change vs veh, NRIP1 / RFU, PTTG1IP / Fold change vs veh, PTTG1IP / RFU, CAPN2 / Fold change vs veh, CAPN2 / RFU, MED14 / Fold change vs veh, MED14 / RFU, SNORA58 / Fold change vs veh, SNORA58 / RFU, C1orf63 / Fold change vs veh, C1orf63 / RFU, LRRFIP1 / Fold change vs veh, LRRFIP1 / RFU, NDUFAF7 / Fold change vs veh, NDUFAF7 / RFU, SLC12A2 / Fold change vs veh, SLC12A2 / RFU, IBTK / Fold change vs veh, IBTK / RFU, ESF1 / Fold change vs veh, ESF1 / Fold change vs veh, TMEM50B / RFU, TAOK1 / Fold change vs veh, TAOK1 / RFU, ACBD3 / Fold change vs veh, ACBD3 / RFU, TMA16 / Fold change vs veh, TMA16 / RFU, RWDD3 / Fold change vs veh, RWDD3 / RFU, BCAT1 / Fold change vs veh, BCAT1 / RFU, EDEM3 / Fold change vs veh, EDEM3 / RFU, TMEM33 / Fold change vs veh, TMEM33 / RFU, WDR75 / Fold change vs veh, WDR75 / RFU, AHCTF1 / Fold change vs veh, AHCTF1 / RFU, TFRC / Fold change vs veh, TFRC / RFU, ZDHHC17 / Fold change vs veh, ZDHHC17 / RFU, NOM1 / Fold change vs veh, NOM1 / RFU, ARL8B / Fold change vs veh, ARL8B / RFU, ZBTB11 / Fold change vs veh, ZBTB11 / RFU, TAMM41 / Fold change vs veh, TAMM41 / RFU, KIAA1704 /// LOC100996395 / Fold change vs veh, KIAA1704 /// LOC100996395 / RFU, ING1 / Fold change vs veh, ING1 / RFU, TRMT61B / Fold change vs veh, TRMT61B / RFU, FUBP3 / Fold change vs veh, FUBP3 / RFU, TP53 / Fold change vs veh, TP53 / RFU, TNKS2 / Fold change vs veh, TNKS2 / RFU, ZFP14 / Fold change vs veh, ZFP14 / RFU, ACTR2 / Fold change vs veh, ACTR2 / RFU, PPP3R1 / Fold change vs veh, PPP3R1 / RFU, PIK3R1 / Fold change vs veh, PIK3R1 / RFU, HNRNPA1 / Fold change vs veh, HNRNPA1 / RFU, RNF170 / Fold change vs veh, RNF170 / RFU, ZNF28 / Fold change vs veh, ZNF28 / RFU, RNGTT / Fold change vs veh, RNGTT / RFU, OGT / Fold change vs veh, OGT / RFU, BRD1 / Fold change vs veh, BRD1 / RFU, MARS / Fold change vs veh, MARS / RFU, ZNF655 / Fold change vs veh, ZNF655 / RFU, FAHD1 / Fold change vs veh, FAHD1 / RFU, BDP1 / Fold change vs veh, BDP1 / RFU, LRRCC1 / Fold change vs veh, LRRCC1 / RFU, ARID1A / Fold change vs veh, ARID1A / RFU, ZNF146 / Fold change vs veh, ZNF146 / RFU, ZNF330 / Fold change vs veh, ZNF330 / RFU, GPN3 / Fold change vs veh, GPN3 / RFU, C9orf123 / Fold change vs veh, C9orf123 / RFU, N4BP2L2 / Fold change vs veh, N4BP2L2 / RFU, ARFIP1 / Fold change vs veh, ARFIP1 / RFU, FAM179B / Fold change vs veh, FAM179B / RFU, BCL10 / Fold change vs veh, BCL10 / RFU, UHRF1BP1L / Fold change vs veh, UHRF1BP1L / RFU, BET1 / Fold change vs veh, BET1 / RFU, CNOT2 / Fold change vs veh, CNOT2 / RFU, ZNF268 / Fold change vs veh, ZNF268 / Fold change vs veh, ZNF507 / RFU, DGCR2 / Fold change vs veh, DGCR2 / RFU, WDSUB1 / Fold change vs veh, WDSUB1 / Fold change vs veh, HSP90B1 /// MIR3652 / RFU, ADSS / Fold change vs veh, ADSS / RFU, GK / Fold change vs veh, GK / RFU, ZNF148 / Fold change vs veh, ZNF148 / RFU, TAF9 / Fold change vs veh, TAF9 / RFU, SLC1A5 / Fold change vs veh, SLC1A5 / RFU, SLMO2 / Fold change vs veh, SLMO2 / RFU, ABCC4 / Fold change vs veh, ABCC4 / RFU, LOC101060439 /// RAP1B / Fold change vs veh, LOC101060439 /// RAP1B / RFU, RFX7 / Fold change vs veh, RFX7 / RFU, GTPBP10 / Fold change vs veh, GTPBP10 / RFU, CNEP1R1 / Fold change vs veh, CNEP1R1 / RFU, BIVM-ERCC5 /// ERCC5 / Fold change vs veh, BIVM-ERCC5 /// ERCC5 / RFU, ILF3 / Fold change vs veh, ILF3 / RFU 11762660_at / Fold change /veh 11762660_at / RFU VCAN (11757783_s_at) / Fold change /veh VCAN (11757783_s_at) / RFU DDX43 (11728927_at) / Fold change /veh DDX43 (11728927_at) / RFU KRT8 (11758188_x_at) / Fold change /veh KRT8 (11758188_x_at) / RFU NKD1 (11759106_at) / Fold change /veh NKD1 (11759106_at) / RFU SRD5A1 (11742802_a_at) / Fold change /veh SRD5A1 (11742802_a_at) / RFU TPSAB1 /// TPSB2 (11721975_s_at) / Fold change /veh TPSAB1 /// TPSB2 (11721975_s_at) / RFU GSTM3 (11746129_a_at) / Fold change /veh GSTM3 (11746129_a_at) / RFU IL23R (11737362_x_at) / Fold change /veh IL23R (11737362_x_at) / RFU TMEM51 (11727254_a_at) / Fold change /veh TMEM51 (11727254_a_at) / RFU PIWIL2 (11732686_x_at) / Fold change /veh PIWIL2 (11732686_x_at) / RFU ORM1 (11744905_x_at) / Fold change /veh ORM1 (11744905_x_at) / RFU CCDC152 (11743942_at) / Fold change /veh CCDC152 (11743942_at) / RFU ECM1 (11717891_a_at) / Fold change /veh ECM1 (11717891_a_at) / RFU IL23R (11748794_a_at) / Fold change /veh IL23R (11748794_a_at) / RFU TNFAIP8L3 (11732012_x_at) / Fold change /veh TNFAIP8L3 (11732012_x_at) / RFU MBOAT4 (11741988_at) / Fold change /veh MBOAT4 (11741988_at) / RFU 11764193_at / Fold change /veh 11764193_at / RFU TMEM53 (11763286_at) / Fold change /veh TMEM53 (11763286_at) / RFU MAGEB2 (11727129_at) / Fold change /veh MAGEB2 (11727129_at) / RFU TMEM200A (11744735_a_at) / Fold change /veh TMEM200A (11744735_a_at) / RFU CCDC152 (11751479_a_at) / Fold change /veh CCDC152 (11751479_a_at) / RFU FAM211A (11726209_a_at) / Fold change /veh FAM211A (11726209_a_at) / RFU RGS16 (11746705_a_at) / Fold change /veh RGS16 (11746705_a_at) / RFU VCAN (11755009_s_at) / Fold change /veh VCAN (11755009_s_at) / RFU RHOB (11743442_s_at) / Fold change /veh RHOB (11743442_s_at) / RFU RGS16 (11720943_a_at) / Fold change /veh RGS16 (11720943_a_at) / RFU RGS16 (11720944_at) / Fold change /veh RGS16 (11720944_at) / RFU, VPS4B / Fold change vs veh, VPS4B / RFU, CREB1 / Fold change vs veh, CREB1 / RFU, DNAJC13 / Fold change vs veh, DNAJC13 / RFU, GNAQ / Fold change vs veh, GNAQ / RFU, CDK5R1 / Fold change vs veh, CDK5R1 / RFU, ZRANB3 / Fold change vs veh, ZRANB3 / RFU, CUL4A / Fold change vs veh, CUL4A / RFU, CCNY / Fold change vs veh, CCNY / RFU, UFL1 / Fold change vs veh, UFL1 / RFU, COG3 / Fold change vs veh, COG3 / RFU, DIAPH2 / Fold change vs veh, DIAPH2 / RFU, SKA2 / Fold change vs veh, SKA2 / RFU, AFF3 / Fold change vs veh, AFF3 / RFU, LMF1 / Fold change vs veh, LMF1 / RFU, IPO11 / Fold change vs veh, IPO11 / RFU, DFFB / Fold change vs veh, DFFB / RFU, FOXP1 / Fold change vs veh, FOXP1 / RFU, CARD8 / Fold change vs veh, CARD8 / RFU, STRN3 / Fold change vs veh, STRN3 / RFU, ADK / Fold change vs veh, ADK / RFU, RASSF2 / Fold change vs veh, RASSF2 / RFU, WIPF1 / Fold change vs veh, WIPF1 / RFU, LARP1B / Fold change vs veh, LARP1B / RFU, RASA1 / Fold change vs veh, RASA1 / RFU, RB1 / Fold change vs veh, RB1 / RFU, PPFIA1 / Fold change vs veh, PPFIA1 / RFU, MAT2A / Fold change vs veh, MAT2A / RFU, CCT5 / Fold change vs veh, CCT5 / RFU, WDR92 / Fold change vs veh, WDR92 / RFU, CUX1 / Fold change vs veh, CUX1 / RFU, TTC7A / Fold change vs veh, TTC7A / RFU, TMEM135 / Fold change vs veh, TMEM135 / RFU, DEPTOR / Fold change vs veh, DEPTOR / RFU, CPM / Fold change vs veh, CPM / RFU, DNAJB6 / Fold change vs veh, DNAJB6 / RFU, CACNA2D3 / Fold change vs veh, CACNA2D3 / RFU, DTX4 / Fold change vs veh, DTX4 / RFU, TFCP2 / Fold change vs veh, TFCP2 / RFU, GMCL1 /// GMCL1P1 / Fold change vs veh, GMCL1 /// GMCL1P1 / RFU, AEBP2 / Fold change vs veh, AEBP2 / RFU, SNHG1 /// SNORD22 /// SNORD25 /// SNORD26 /// SNORD27 /// SNORD28 /// SNORD29 /// SNORD31 / Fold change vs veh, SNHG1 /// SNORD22 /// SNORD25 /// SNORD26 /// SNORD27 /// SNORD28 /// SNORD29 /// SNORD31 / Fold change (Aza/veh), C12orf56 (ProbeSet 11735607_a_at) / Fold change (ACY-1035/veh), C12orf56 (ProbeSet 11735607_a_at) / Fold change (Aza/veh), FGFR1OP (ProbeSet 11751329_s_at) / Fold change (ACY-1035/veh), FGFR1OP (ProbeSet 11751329_s_at) / Fold change (Aza/veh), VPS36 (ProbeSet 11739960_a_at) / Fold change (ACY-1035/veh), VPS36 (ProbeSet 11739960_a_at) / RFU SYPL1 (11715823_x_at) / Fold change /veh SYPL1 (11715823_x_at) / RFU IGFBP7 (11715501_s_at) / Fold change /veh IGFBP7 (11715501_s_at) / RFU REEP3 (11722064_at) / Fold change /veh REEP3 (11722064_at) / RFU IGLL1 (11728026_x_at) / Fold change /veh IGLL1 (11728026_x_at): dose or concentration left out as unconfirmed
# Details: MV-4-11 cells, 48 hours
smiles,measurement,value
Nc1ccc(-c2cccs2)cc1NC(=O)c1ccc2c(c1)cc(C1CC1)n2CCN1CCOCC1 [ACY-1035],Fold change /veh EBF3 (11725865_a_at),1.09
